Test results published in patent publication US4560695A, “Isoxazolyl and isothiazolyl aromatase inhibitors” (Eli Lilly and Company, priority 1984, dated 1985).
pEC50: −log10 of the molar value.

Tests used:
estrogen synthesis = assay: Estrogen synthesis inhibition in rats (uterine weight and ovarian steroid concentrations); assay type: in vivo, Wistar rats; settings: seven days
Method: By virtue of their ability to inhibit the enzyme aromatase, the compounds of this invention are able to inhibit the synthesis of estrogens in mammals, thereby making the compounds useful in the treatment of estrogen-dependent diseases, such as breast cancer.
Immature female Wistar rats (44-55 grams) were divided into control and test groups of 5-8 animals each. Test compounds were administered for seven days as a component of the diet. Control animals received diet without the test compound. Beginning on the fourth day of the test, all animals treated with the test compound and one half of the control animals were given a subcutaneous injection of 1.0 mg of testosterone propionate in corn oil. The remaining control animals received only an equivalent volume of corn oil. On the seventh day of the test, rats treated with testosterone propionate were injected subcutaneously with 100 μCi of [^3 H]-testosterone in 50 μl of 3:1 (v/v) saline-ethanol.
After two hours, the animals were killed by decapitation. Uteri were isolated, trimmed of extraneous connective tissue, and weighed. […] In the control animals treated with testosterone propionate, estrogens produced by aromatization stimulated the uterus resulting in an increase in weight. […] Ovaries from rats treated with [^3 H]-testosterone were excised, cleaned of extraneous tissue, and homogenized in 2.5 ml of a 1.0 mM potassium phosphate buffer containing 3.0 mM MgCl2.6H2 O, 320 mM sucrose, and 0.25% Triton X-100 (polyethylene glycol p-isooctyl phenyl ether, Rohm and Haas) at pH 6.5. The ovarian steroids were extracted with 1.5 ml of 9:1 (v/v) toluene/ethanol to which had been added 25 to 100 mcg each of unlabelled estradiol, estriol, and estrone, and approximately 1000 dpm of [^14 C]-estradiol. The samples were vortexed, centrifuged at 500×g for 10 minutes, and the organic phase was transferred to a conical vial. Two additional extractions were performed on the residue in the same way. The pooled organic extracts were evaporated for subsequent thin-layer chromatography.
Ovarian proteins were precipitated by the addition of 5.0 ml of ethanol to the remaining aqueous phase. […] Protein was determined according to the method of Bradford, Analytical Biochemistry, 72, 248 (1976). […]
The visible spots were marked and the plates were sprayed with primulin (0.001% in 4:1 v/v acetone/water) according to the method of Wright, J. Chromatography, 59, 220 (1971) which allowed for the identification of additional steroids under 365 nm UV light. […] The organic solvent was evaporated and 10.0 ml of scintillation fluid (Beckman Ready Solv-NA) was added to the vials. Samples were analyzed by liquid scintillation spectrometry. […] Steroid concentrations are expressed as femtomoles per milligram protein.

aromatase = target: T1, aromatase (Rattus norvegicus, UniProt P22443); assay: Aromatase inhibition in the rat ovarian microsome assay; assay type: biochemical; settings: substrate (androstenedione) concentration 0.1 μM; rat ovarian microsomes
T1 construct: ovarian microsomes are obtained from rats treated with pregnant mares serum gonadotropin; from tissue; host or cells: ovarian microsomes from rats treated with pregnant mares serum gonadotropin
T1 sequence (P22443 1-508): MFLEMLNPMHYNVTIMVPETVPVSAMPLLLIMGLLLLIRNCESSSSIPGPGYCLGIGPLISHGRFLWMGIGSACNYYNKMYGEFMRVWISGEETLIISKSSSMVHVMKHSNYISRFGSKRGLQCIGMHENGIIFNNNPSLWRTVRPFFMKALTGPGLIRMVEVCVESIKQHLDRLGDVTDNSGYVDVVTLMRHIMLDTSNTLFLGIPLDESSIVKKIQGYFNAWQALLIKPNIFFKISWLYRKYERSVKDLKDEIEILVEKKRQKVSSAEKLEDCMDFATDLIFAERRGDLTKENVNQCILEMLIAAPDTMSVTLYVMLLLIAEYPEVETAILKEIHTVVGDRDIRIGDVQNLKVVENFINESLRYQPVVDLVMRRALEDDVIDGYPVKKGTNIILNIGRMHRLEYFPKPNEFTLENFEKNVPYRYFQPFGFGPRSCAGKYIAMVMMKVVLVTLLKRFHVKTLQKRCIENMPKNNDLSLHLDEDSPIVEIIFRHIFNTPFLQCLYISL
Method: In this test system, ovarian microsomes are obtained from rats treated with pregnant mares serum gonadotropin. Test compounds are added to reaction vials containing 0.1 μM 4-androstene-3,17-dione, 100,000 dpm 1,2[^3 H]-androstenedione, the microsomes and a NADPH generating system. The concentrations of the inhibitors tested ranged between 0.005 and 10 μM.

breast cancer = settings: Cancer Research, Vol. 42, Suppl. 8:3261s (1982); cited from earlier work

SMILES: OC(c1ccc(Cl)cc1)(c1ccc(Cl)cc1)c1ccns1 [Example 1, α,α-Bis(4-chlorophenyl)-5-isothiazolemethanol]
- Mean Uterine Weight (estrogen synthesis; 200 ppm in feed (approximately 20 mg/kg/day), testosterone propionate-treated immature female Wistar rats, 5 animals, ^+ p < 0.05 vs testosterone-treated control (203.4)): 110.8 mg
- Mean Steroid Concentration, estriol (estrogen synthesis; ovaries, 200 ppm in feed, [3H]-testosterone, ^+ p < 0.05 vs testosterone-treated control (0.25)): 0.88 femtomoles per milligram of protein
- Mean Steroid Concentration, estrone (estrogen synthesis; ovaries, 200 ppm in feed, [3H]-testosterone, testosterone-treated control 0.19): 0.44 femtomoles per milligram of protein
- Mean Steroid Concentration, estradiol (estrogen synthesis; ovaries, 200 ppm in feed, [3H]-testosterone, testosterone-treated control 1.70): 1.18 femtomoles per milligram of protein

SMILES: OC(c1ccccc1)(c1ccccc1)c1ccns1 [Example 2, α,α-Diphenyl-5-isothiazolemethanol]
- pEC50 (aromatase): 5.35

SMILES: CCC1(c2ccc(N)cc2)CCC(=O)NC1=O (stereo not shown) [aminoglutethimide]
- Effect in treatment of breast cancer (breast cancer): beneficial effect

SMILES: C[C@]12C=CC(=O)C=C1CC[C@@H]1[C@@H]2CC[C@]2(C)OC(=O)CC[C@@H]12 [testolactone]
- Effect in treatment of breast cancer (breast cancer): beneficial effect
